# Results taken from US8551921B2, “Method for determining the toxicity of an environmental or chemical sample” (priority 2000, dated 2013).
# Values joined by “and” are separate entries in the source; they are usually repeats but may differ in a detail not shown here. Identical values can stand only once. Counter-ions that a name gives are not always drawn.
# Experiments:
# [1] = system: JG3 (strain of marine origin); assay: MARA indicator device toxic fingerprint, microorganism no. 3; conditions: Microbial Toxic Concentration; incubation time 16 h
# Procedure: (§1) • dispense 150 μl of growth medium with indicator in each well • add a concentration gradient of the chemical to be tested to rows B-H in a MARA plate (i.e. an indicator device according to the present invention) • incubate for 16 h • read absorbance values; and • analyse with software.
# (§2) Microbial responses to different chemicals was estimated by kinetic measurements of their growth using the Labsystem automated IEMS reader. A computer software that could monitor incubation temperatures, reading intervals, and automatically transfer OD data to a computer was developed. A growth medium containing 0.05% peptone, 0.011% bromothymol blue (BTB), 1% sodium chloride and 0.3% glucose was added to all wells. The glucose acts as a carbon source, and during growth the microorganism will break down the glucose and produce acids, that will turn the initially blue indicator to yellow. Each microplate contains 12 columns and 8 rows, and thus in each plate, 11 lyophilized microbial strains were used (one for each column, the 12th column was used as negative control). […] In order to avoid drying out of the plates during the incubation, one drop of sterile mineral oil was added to each well. The plate was then incubated in the IEMS spectrophotometer and the absorbance value from each well was measured every second hour during 48 h.
# (§3) The overall toxicity of the chemical compound can be described either as the mean of all 11 MTC values (shown in column 12), or as the minimum value for all 11 microbial strains used in the assay (marked with bold in the table).
# E. coli MZ 480 = assay: MARA indicator device toxic fingerprint, microorganism no. 8; conditions: Microbial Toxic Concentration; incubation time 16 h
# Procedure: as §1, §2, §3
# E. coli = conditions: IC50-values, established assay; cited from earlier work
# [2] = system: 11 different microbial strains; conditions: for Inhibitory concentrations by method: MARA MTCmin: MTC value of the strain showing the highest sensitivity; for Inhibitory concentrations by method: MARA MTCmean: mean MTC for the 11 microbial strains; for Toxic fingerprint: MTC value, Mean: mean of all 11 MTC values
# Procedure: as §1, §2, §3
# Concentrations are given in mg/ml.
# ObanF = conditions: Microbial Toxic Concentration; incubation time 16 h
# Procedure: as §1, §2, §3
# [3] = system: JG4 (strain of marine origin); conditions: Microbial Toxic Concentration; incubation time 16 h
# Procedure: as §1, §2, §3
# [4] = system: JG1 (strain of marine origin); conditions: Microbial Toxic Concentration; incubation time 16 h
# Procedure: as §1, §2, §3
# [5] = system: JG2 (strain of marine origin); conditions: Microbial Toxic Concentration; incubation time 16 h
# Procedure: as §1, §2, §3
# [6] = system: Aeromonas hydriphila HG3 (RV 5.1); conditions: Microbial Toxic Concentration; incubation time 16 h
# Procedure: as §1, §2, §3
# [7] = system: Saccaromyces ceriviciae (bakers yeast); conditions: Microbial Toxic Concentration; incubation time 16 h
# Procedure: as §1, §2, §3
# [8] = system: β-proteobacterium A22 (Kalmar 200); assay: MARA indicator device toxic fingerprint, microorganism no. 5; conditions: Microbial Toxic Concentration; incubation time 16 h
# Procedure: as §1, §2, §3
# [9] = system: Staphylococcus epidermidis (Karin12); assay: MARA indicator device toxic fingerprint, microorganism no. 11; conditions: Microbial Toxic Concentration; incubation time 16 h
# Procedure: as §1, §2, §3
# Daphnia = conditions: IC50-values, established assay; cited from earlier work
# [10] = system: Photobacterium phosphoreum; conditions: IC50-values, established assay; cited from earlier work
# microorganism no. 7 = assay: MARA indicator device toxic fingerprint, microorganism no. 7; conditions: Microbial Toxic Concentration; incubation time 16 h
# Procedure: as §1, §2, §3
Compound,Toxic fingerprint: MTC value for microorganism no. 3 [1],Toxic fingerprint: MTC value for microorganism no. 8 (E. coli MZ 480),Inhibitory concentrations by method: E. coli (E. coli),Inhibitory concentrations by method: MARA MTCmin [2],Inhibitory concentrations by method: MARA MTCmean [2],"Toxic fingerprint: MTC value, Mean [2]",Toxic fingerprint: MTC value for microorganism no. 9 (ObanF),Toxic fingerprint: MTC value for microorganism no. 4 [3],Toxic fingerprint: MTC value for microorganism no. 1 [4],Toxic fingerprint: MTC value for microorganism no. 2 [5],Toxic fingerprint: MTC value for microorganism no. 6 [6],Toxic fingerprint: MTC value for microorganism no. 10 [7],Toxic fingerprint: MTC value for microorganism no. 5 [8],Toxic fingerprint: MTC value for microorganism no. 11 [9],Inhibitory concentrations by method: Daphnia (Daphnia),Inhibitory concentrations by method: Microtox [10],Toxic fingerprint: MTC value for microorganism no. 7 (microorganism no. 7)
O=S(=O)([O-])[O-].[Li+].[Li+] [Lithium Sulphate],12.200 and 12.700,41.800 and 25.400,67.764 mg/mL,3.11 mg/mL,11.330 mg/mL,9.960 and 12.700,23.400 and 17.500,4.590 and 7.950,3.700 and 4.780,6.300 and 7.170,10.600 and 8.490,2.650 and 3.570,14.500 and 10.000,22.400 and 15.300,0.033 mg/mL,25.763 mg/mL,
Oc1c(Cl)c(Cl)c(Cl)c(Cl)c1Cl [Penta Chloro Phenol],,0.005 and 0.006,0.010 mg/mL,0.001 mg/mL,0.005 mg/mL,0.004 and 0.005,0.004 and 0.003,0.009 and 0.010,0.006 and 0.004,0.001,0.003 and 0.006,,0.007 and 0.004,0.001,0.001 mg/mL,0.001 mg/mL,0.005 and 0.007
Kinidin sulphate,0.113 and 0.104,,1.009 mg/mL,0.087 mg/mL,0.148 mg/mL,0.150 and 0.145,0.254 and 0.329,0.243 and 0.233,0.108 and 0.102,0.053 and 0.076,0.099 and 0.141,0.091 and 0.072,,0.088 and 0.085,0.062 mg/mL,0.092 mg/mL,0.138 and 0.275
COc1ccc(CCN(C)CCCC(C#N)(c2ccc(OC)c(OC)c2)C(C)C)cc1OC (stereo not drawn) [Verapamil HCl],0.128,0.360,0.834 mg/mL,0.360 mg/mL,0.811 mg/mL,0.811,0.510,3.100,0.326,0.247,1.090,0.877,0.591,0.371,0.055 mg/mL,0.438 mg/mL,2.950
